Values joined by “and” are separate entries in the source; they are usually repeats but may differ in a detail not shown here. Equal values may be shown once. Read-outs that look alike come from different tables or passages of the source.

The target in data set [1] is T1, hDHODH (Met30-Arg396) (Homo sapiens, UniProt Q02127).
T1 construct: hDHODH (Met30-Arg396) was expressed and purified in the same manner as described in our recently published work; made in house
Put plainly: hDHODH enzyme inhibition, DCIP assay. Conditions: for LLE: LLE = pIC50 − clogP; for IC50: hDHODH, mean ± SD of three independent experiments, IC50 measured if inhibition rate at 10 μM was larger than 50%; for fold decrease in potency compared with 19: hDHODH IC50 relative to 19. The data set is classed as biochemical. The text has this: The plasmid coding for human DHODH was kindly provided by Prof. Jon Clardy (Harvard Medical School)[7]. hDHODH (Met30-Arg396) was expressed and purified in the same manner as described in our recently published work[38]. We determined the effect of benzylidenehydrazinyl-substituted thiazole derivatives to inhibit hDHODH by using a DCIP assay method.

Details of data set [2]: method as in PMID 16645972. Conditions: in patients; cited from earlier work.
In data set [3] the target is T1, hDHODH (Met30-Arg396). Also on record: method as in PMID 22984987. Conditions: from earlier virtual screen; cited from earlier work.
The test system of data set [4] is Wistar rats with collagen-induced arthritis (CIA). Kind of data set: collagen-induced arthritis (CIA) rat efficacy study. Format: in vivo. The following applies: i.p. daily for 28 days, versus model group. The protocol:
Compound 19 and methotrexate were injected intraperitoneally once per day for 28 days into the Wistar rats with collagen-induced arthritis (CIA). The swelling scores of the arthritis and morphological observations of the rats’ joint tissues were employed to examine the anti-arthritic effect of compound 19 (Fig. 5). With the onset of arthritis, the swelling scores were an indication of the disease states. The maximum score was 8, which is the sum of the scores from both hind paws of each rat and indicates a severe arthritis state. During the experiment, the control rats had normal eating patterns, shiny hair and continuously increasing body weight.
Adult male Wistar rats (120–140 g) were purchased from Shanghai SLRC Laboratory animal company and housed in standard pathogen-free cages. The environment was climate-controlled (20–25 °C, 50–60% relative humidity) with a 12-hour light and 12-hour dark cycle as described previously. Sterilized food and water were provided naturally. All procedures involving animals conform to the Chinese government guidelines for animal experiments, and were conducted with approval of the Institutional Animal Care and Use Committee of East China University of Science & Technology. Bovine type II collagen (CII, Chondrex, USA) was emulsified in the same manner as that conducted previously to get the CIA model. Specifically, 49 rats were randomly assigned into five groups: normal control (solvent, i.p., n = 6), CIA model (solvent, i.p., n = 11), Methotrexate-treated (0.3 mg/kg, i.p., n = 10), compound 19-treated (5 mg/kg, i.p., n = 11) and compound 19-treated (30 mg/kg, i.p., n = 11) groups. Methotrexate, reported to has a therapeutic effect on rheumatoid arthritis, was used as the positive control in this study. The main workflows of this experiment were consistent with that reported recently. During the 28 days of the experiment, compound 19 (5 mg/kg and 30 mg/kg) and Methotrexate (0.3 mg/kg) were injected intraperitoneally once every day. At the same time, the normal control group and model group were administered the same amount of solution. The solvent of 19 was made up of 5% DMSO, 45% saline and 50% PEG400.
In this study, the clinical-mimic arthritis was observed and the severity was assessed by the same criteria as that applied in reference 65: 0, normal, without any swelling; 1, mild swelling; 2, swelling; 3, significant swelling; 4, severe swelling. The maximum score was 8, which was the sum of the scores from both hind paws of each rat. When arthritic signs appeared, the incidence and severity of the arthritis in rats with different treatments were evaluated via arthritis scores recorded every 2 days under blinded conditions. Measurement of body weight was taken every 3 days. All Wistar rats were killed after 28 day’s trails. Pathological detections against the whole knee joints of the rats were conducted using the same method as described previously. Mean ± standard deviation […] was applied to present the data in this study. SPSS was used to evaluate the statistical significance of differences among the groups. P ≤ 0.05 was the threshold to be statistically significant.

T1 sequence (Q02127 29-395): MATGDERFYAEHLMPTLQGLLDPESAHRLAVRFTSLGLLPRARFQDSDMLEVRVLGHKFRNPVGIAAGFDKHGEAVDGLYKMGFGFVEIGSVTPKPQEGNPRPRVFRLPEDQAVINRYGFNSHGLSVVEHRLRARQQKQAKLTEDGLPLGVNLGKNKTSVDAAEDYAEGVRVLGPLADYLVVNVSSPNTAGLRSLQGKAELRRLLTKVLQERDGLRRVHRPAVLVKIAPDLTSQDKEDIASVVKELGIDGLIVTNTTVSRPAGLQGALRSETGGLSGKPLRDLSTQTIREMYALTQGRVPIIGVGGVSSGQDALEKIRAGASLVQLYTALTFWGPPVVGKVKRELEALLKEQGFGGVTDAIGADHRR

As to `O=C(O)c1ccccc1/C=N/Nc1nc(-c2ccc(-c3ccccc3)cc2)cs1` [Compound 32, (E)-2-((2-(4-([1,1′-biphenyl]-4-yl)thiazol-2-yl)hydrazono)methyl)benzoic acid], on hDHODH (Met30-Arg396) [1], the “inhibition of hDHODH (in words)” value was “loss of activity”, the LLE was less than −0.04 and the IC50 is greater than 10 µM.
At hDHODH (Met30-Arg396) [1], `Oc1ccccc1/C=N/Nc1nc(-c2ccccc2)cs1` [Compound 8] came in with an LLE of less than 0.17 and an IC50 greater than 10 µM.
As for `Cc1ccc(-c2csc(N/N=C/c3ccccc3C(=O)O)n2)cc1` [Compound 29, (E)-2-((2-(4-(p-tolyl)thiazol-2-yl)hydrazono)methyl)benzoic acid], on hDHODH (Met30-Arg396) [1], the LLE came out at 2.64 and the IC50 was found to be 0.155 ± 0.0068 µM.
`Cc1oncc1C(=O)Nc1ccc(C(F)(F)F)cc1` [Leflunomide, leflunomide]: in data set [2], the half-life result is “approximately two”.
As for `Nc1cccc(C(=O)O)c1/C=N/Nc1nc(-c2ccccc2Cl)cs1` [Compound 25, (E)-3-amino-2-((2-(4-(2-chlorophenyl)thiazol-2-yl)hydrazono)methyl)benzoic acid], at hDHODH (Met30-Arg396) [1], the “inhibition of hDHODH (in words)” value is “sharp decrease in inhibitory activity”, the LLE is reported as less than 1.22 and the IC50 was greater than 10 µM.
At hDHODH (Met30-Arg396) [1], `Cc1sc(N/N=C/c2cc([N+](=O)[O-])ccc2O)nc1-c1ccccc1` [Compound 14] came in with an LLE of less than −0.48 and an IC50 greater than 10 µM.
Take `O=Cc1ccccc1/C=N/Nc1nc(-c2ccccc2)cs1` [Compound 7]: on hDHODH (Met30-Arg396) [1], the LLE amounted to 2.92 and the IC50 came to 0.365 ± 0.0006 µM. Also, at hDHODH (Met30-Arg396) [3], the IC50 is 0.365 µM.
For `O=C(O)c1ccccc1/C=N/Nc1nc(-c2cc(Cl)ccc2Cl)cs1` [Compound 30, (E)-2-((2-(4-(2,5-dichlorophenyl)thiazol-2-yl)hydrazono)methyl)benzoic acid], at hDHODH (Met30-Arg396) [1], the “inhibition of hDHODH (in words)” value is recorded as “IC50 values in the double-digit nanomolar range”; the LLE is recorded as 2.88; the IC50 was 0.043 µM and 0.0431 µM.
With `CC(C)c1ccc(-c2csc(N/N=C/c3ccccc3O)n2)cc1` [Compound 16, (E)-2-((2-(4-(4-isopropylphenyl)thiazol-2-yl)hydrazono)methyl)phenol], on hDHODH (Met30-Arg396) [1], the LLE is less than −1.23 and the IC50 is greater than 10 µM.
`Oc1ccccc1/C=N/Nc1nc(-c2ccccc2Cl)cs1` [Compound 18, (E)-2-((2-(4-(2-chlorophenyl)thiazol-2-yl)hydrazono)methyl)phenol]: at hDHODH (Met30-Arg396) [1], the “inhibition of hDHODH (in words)” value is “moderate inhibition”, the LLE was found to be 0.76 and half-maximal inhibition (IC50) was put at 1.39 ± 0.038 µM.
At hDHODH (Met30-Arg396) [1], `Oc1c(Cl)cc(Cl)cc1/C=N/Nc1nc(-c2ccccc2)cs1` [Compound 9] registered an LLE of less than −1.58 and an IC50 greater than 10 µM.
Consider `CN(Cc1cnc2nc(N)nc(N)c2n1)c1ccc(C(=O)N[C@@H](CCC(=O)O)C(=O)O)cc1` [methotrexate, reference compound], for which the “influence on body weight” value in data set [4] is reported as “no obvious influence on increase in body weight”.
Regarding `O=C(O)c1ccccc1/C=N/Nc1nc(-c2ccc3ccccc3c2)cs1` [Compound 31, (E)-2-((2-(4-(naphthalen-2-yl)thiazol-2-yl)hydrazono)methyl)benzoic acid], at hDHODH (Met30-Arg396) [1], the “inhibition of hDHODH (in words)” value is “moderate inhibitory activity”, the LLE is listed as 1.43 and the IC50 amounted to 0.573 ± 0.0216 µM.
As for `O=C(O)c1cccc(/C=N/Nc2nc(-c3ccccc3Cl)cs2)c1` [Compound 20, (E)-3-((2-(4-(2-chlorophenyl)thiazol-2-yl)hydrazono)methyl)benzoic acid], on hDHODH (Met30-Arg396) [1], the “inhibition of hDHODH (in words)” value is reported as “loss of activity”, the LLE is reported as less than 0.34 and the IC50 is greater than 10 µM.
With `Cc1sc(N/N=C/c2ccccc2O)nc1-c1ccccc1` [Compound 15, (E)-2-((2-(5-methyl-4-phenylthiazol-2-yl)hydrazono)methyl)phenol], on hDHODH (Met30-Arg396) [1], the “inhibition of hDHODH (in words)” value was “moderate inhibition”, the LLE was 0.48 and the IC50 was found to be 2.437 ± 0.0229 µM.
With `Oc1ccccc1/C=N/Nc1nc(-c2ccc(Cl)c(Cl)c2)cs1` [Compound 17, (E)-2-((2-(4-(3,4-dichlorophenyl)thiazol-2-yl)hydrazono)methyl)phenol], at hDHODH (Met30-Arg396) [1], the LLE is reported as less than −1.03 and the IC50 was greater than 10 µM.
In the same order, the values of `Brc1ccc(-c2csc(N/N=C/c3ccco3)n2)cc1` [Compound 13] are less than 0 and greater than 10 µM.
On hDHODH (Met30-Arg396) [1], `COc1cccc(-c2csc(N/N=C/c3ccccc3C(=O)O)n2)c1` [Compound 27, (E)-2-((2-(4-(3-methoxyphenyl)thiazol-2-yl)hydrazono)methyl)benzoic acid] yielded an LLE of 3.52 and a concentration for half-maximal inhibition (IC50) of 0.175 ± 0.0018 µM.
For `Oc1c(Cl)cc(Cl)cc1/C=N/Nc1nc(-c2ccc(Cl)cc2Cl)cs1` [Compound 10], in that order: less than −2.53 and greater than 10 µM.
Regarding `NC(=O)c1cccc(-c2csc(N/N=C/c3ccccc3C(=O)O)n2)c1` [Compound 28, (E)-2-((2-(4-(3-carbamoylphenyl)thiazol-2-yl)hydrazono)methyl)benzoic acid], on hDHODH (Met30-Arg396) [1], the “inhibition of hDHODH (in words)” value was “sharp decrease in potency”, the LLE is reported as 4.38 and the half-maximal inhibitory concentration (IC50) came out at 1.175 ± 0.0085 µM.
For the compound `O=C(O)c1ccc(/C=N/Nc2nc(-c3ccccc3Cl)cs2)cc1` [Compound 21, (E)-4-((2-(4-(2-chlorophenyl)thiazol-2-yl)hydrazono)methyl)benzoic acid], on hDHODH (Met30-Arg396) [1], the “inhibition of hDHODH (in words)” value is “loss of activity”, the LLE is given as less than 0.28 and the IC50 is greater than 10 µM.
For `COC(=O)c1ccccc1/C=N/Nc1nc(-c2ccccc2Cl)cs1` [Compound 22, (E)-methyl 2-((2-(4-(2-chlorophenyl)thiazol-2-yl)hydrazono)methyl)benzoate], on hDHODH (Met30-Arg396) [1], the LLE came out at 1.02, the “fold decrease in potency compared with 19” value (“fold decrease in potency” for short) is 101 fold and 3.27 ± 0.0678 µM corresponded to half-maximal inhibition (IC50).
On hDHODH (Met30-Arg396) [1], `Brc1ccc(-c2csc(N/N=C/c3ccccc3)n2)cc1` [Compound 12] had an LLE of less than −0.42 and an IC50 greater than 10 µM.
For the compound `O=C(O)c1ccccc1/C=N/Nc1nc(-c2ccccc2)cs1` [Compound 26, (E)-2-((2-(4-phenylthiazol-2-yl)hydrazono)methyl)benzoic acid], on hDHODH (Met30-Arg396) [1], the “inhibition of hDHODH (in words)” value is “slight decrease in activity”, the LLE is reported as 3.12 and half-maximal inhibition (IC50) was put at 0.183 ± 0.0031 µM.
`O=C(O)c1c(F)cccc1/C=N/Nc1nc(-c2ccccc2Cl)cs1` [Compound 24, (E)-2-((2-(4-(2-chlorophenyl)thiazol-2-yl)hydrazono)methyl)-6-fluorobenzoic acid]: on hDHODH (Met30-Arg396) [1], the LLE stood at 2.66, the “fold decrease in potency” value is 7 fold and 0.234 ± 0.0068 µM corresponded to half-maximal inhibition (IC50).
For the compound `C/C(=N\Nc1nc(-c2ccc(Br)cc2)cs1)c1ccccc1O` [Compound 11], at hDHODH (Met30-Arg396) [1], the LLE is on record as less than −0.81 and the half-maximal inhibitory concentration (IC50) was greater than 10 µM.
`CCOC(=O)c1ccccc1/C=N/Nc1nc(-c2ccccc2Cl)cs1` [Compound 23, (E)-ethyl 2-((2-(4-(2-chlorophenyl)thiazol-2-yl)hydrazono)methyl)benzoate]: at hDHODH (Met30-Arg396) [1], the LLE came out at 0.75, the “fold decrease in potency” value turned out to be 58 fold and it took 1.87 ± 0.03 µM to reach half-maximal inhibition (IC50).

Source of the values: publication PMC4595849, “Rational Design of Benzylidenehydrazinyl-Substituted Thiazole Derivatives as Potent Inhibitors of Human Dihydroorotate Dehydrogenase with in Vivo Anti-arthritic Activity” (Scientific Reports, 2015).
